In data set [1] the test system is wild type (RH) strain of T. gondii. In words: Anti-toxoplasmic activity in tissue culture. The format is cell-based, Toxoplasma gondii. The note with it: wild type (RH) in human fibroblasts.
The test system of data set [2] is adenosine kinase deficient (TgAK^-3) strain of T. gondii. Kind of data set: Anti-toxoplasmic activity in tissue culture. The format is cell-based, Toxoplasma gondii. The note with it: TgAK^-3 in human fibroblasts.
Data set [3] has as its system Toxoplasma gondii adenosine kinase. To be noted: read-out: Km (binding affinity); apparent Km equal to apparent Ki; cited from earlier work.
Data set [4] deals with uninfected human foreskin fibroblasts. Kind of data set: Host toxicity, MTT assay on uninfected host cells. To be noted: infection: None. On the technique in general: Tetrazolium dyes change colour on reduction, which living cells bring about.
Data set [5] has as its target purified T. gondii adenosine kinase (Toxoplasma gondii, UniProt Q9TVW2). Kind of data set: Alternative substrate assay with purified recombinant enzyme. To be noted: 100 μM analogue, overnight at 37°C, HPLC. The format is biochemical.
Data set [6] concerns Toxoplasma gondii adenosine kinase. Kind of data set: Binding affinity. The note with it: relative to 6-(p-methylbenzylthio)inosine; ref 24 and Table 2.

These results are taken from publication PMC2923275 (Biochemical pharmacology, 2010).

Broadly, the Km is the concentration of substrate that gives half-maximal velocity.

The structures appear in SMILES notation.

purified T. gondii adenosine kinase, sequence (Q9TVW2 whole entry): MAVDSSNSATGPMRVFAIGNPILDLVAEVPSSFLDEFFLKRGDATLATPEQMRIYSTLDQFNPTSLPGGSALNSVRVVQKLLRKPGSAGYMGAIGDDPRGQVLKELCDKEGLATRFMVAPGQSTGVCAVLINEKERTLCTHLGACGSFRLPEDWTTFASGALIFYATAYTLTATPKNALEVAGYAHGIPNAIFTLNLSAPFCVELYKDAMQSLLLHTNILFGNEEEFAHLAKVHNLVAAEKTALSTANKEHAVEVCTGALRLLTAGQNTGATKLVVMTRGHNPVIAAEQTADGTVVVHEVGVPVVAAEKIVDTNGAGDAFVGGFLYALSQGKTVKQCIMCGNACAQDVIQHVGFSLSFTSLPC

Take `OCC1CC(n2cnc3c(SCc4ccccc4)ncnc32)C(O)C1O` (stereo not shown) [Compound 1, Carbocyclic 6-(benzylthio)inosine]: the “percent survival of parasite” value in data set [1] (5 μM compound) turned out to be 84.7%; in data set [1] (10 μM compound), 42.7%; in data set [1] (25 μM compound), 4.9%; in data set [1] (50 μM compound), 0.0%; in data set [2] (5 μM compound), 100%; in data set [2] (10 μM compound) it was 100%. Moreover, the “percent survival of parasite” value in data set [2] (25 μM compound) and in data set [2] (50 μM compound) was 100% in each case. In addition, the Michaelis-Menten constant (Km) in data set [3] was 105 µM. The “host-toxicity (survival of uninfected host cells)” value (“host-toxicity” below) was found to be 100% in data set [4] (5 μM compound), 100% in data set [4] (10 μM compound), 100% in data set [4] (25 μM compound) and 94.3% in data set [4] (50 μM compound). The “metabolism to nucleoside 5'-monophosphate by the enzyme” value in data set [5] was “converted to their respective nucleoside 5’-monophosphates”.

In the case of `OCC1CC(n2cnc3c(SCc4ccc(F)cc4)ncnc32)C(O)C1O` (stereo not shown) [Compound 8, Carbocyclic 6-(p-fluorobenzylthio)inosine], the “percent survival of parasite” value in data set [1] (5 μM compound) amounted to 89.2%; in data set [1] (10 μM compound), 61.5%; in data set [1] (25 μM compound), 12.4%; in data set [1] (50 μM compound), 3.4%; in data set [2] (5 μM compound), 100%; in data set [2] (10 μM compound) it was 100%. Further, the “percent survival of parasite” value in data set [2] (25 μM compound) and in data set [2] (50 μM compound) was 100% throughout. The “host-toxicity” value in data set [4] (5 μM compound), in data set [4] (10 μM compound), in data set [4] (25 μM compound) and in data set [4] (50 μM compound) was 100% each time. Besides, in data set [5], the “metabolism to nucleoside 5'-monophosphate by the enzyme” value was “its 5’-monophosphate derivative appeared as a new peak”.

Take `Cc1ccc(CSc2ncnc3c2ncn3C2CC(CO)C(O)C2O)cc1` (stereo not shown) [Compound 11, Carbocyclic 6-(p-methylbenzylthio)inosine]: the “percent survival of parasite” value in data set [1] (5 μM compound) is given as 43.4%; in data set [1] (10 μM compound), 2.54%; in data set [1] (25 μM compound), 0.0%; in data set [1] (50 μM compound), 0.0%; in data set [2] (5 μM compound), 99.0%; in data set [2] (10 μM compound) it was 100%. Besides, the “percent survival of parasite” value in data set [2] (25 μM compound) and in data set [2] (50 μM compound) was 100% each time. In data set [6], the “enhancement of binding by inclusion of the carbocyclic motif” value turned out to be 3.7 fold. Further, the “host-toxicity” value in data set [4] (5 μM compound), in data set [4] (10 μM compound), in data set [4] (25 μM compound) and in data set [4] (50 μM compound) was 100% each time.
